Assay results taken from PubChem BioAssay (NCI).
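A five-concentration, 48-hour dose response in 96-well plates underlies each endpoint, interpolated linearly between surrounding concentrations. At the TGI there is no net growth.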

What was measured:
Experiment in all cases: DTP human tumour cell line panel, 48 h
786-0 renal = tested on: 786-0 renal
A498 renal = tested on: A498 renal
A549 NSCLC = tested on: A549 NSCLC
ACHN renal = tested on: ACHN renal
CAKI-1 renal = tested on: CAKI-1 renal
CCRF-CEM leukemia = tested on: CCRF-CEM leukemia
DLD-1 colon = tested on: DLD-1 colon
DMS 114 small cell lung = tested on: DMS 114 small cell lung
DMS 273 small cell lung = tested on: DMS 273 small cell lung
EKVX NSCLC = tested on: EKVX NSCLC
HL-60(TB) leukemia = tested on: HL-60(TB) leukemia
HOP-62 NSCLC = tested on: HOP-62 NSCLC
HOP-92 NSCLC = tested on: HOP-92 NSCLC
HT29 colon = tested on: HT29 colon
IGROV1 ovarian = tested on: IGROV1 ovarian
K-562 leukemia = tested on: K-562 leukemia
KM12 colon = tested on: KM12 colon
KM20L2 colon = tested on: KM20L2 colon
LOX IMVI melanoma = tested on: LOX IMVI melanoma
LXFL 529 NSCLC = tested on: LXFL 529 NSCLC
M14 melanoma = tested on: M14 melanoma
M19-MEL melanoma = tested on: M19-MEL melanoma
MALME-3M melanoma = tested on: MALME-3M melanoma
MOLT-4 leukemia = tested on: MOLT-4 leukemia
NCI-H226 lung = tested on: NCI-H226 lung
NCI-H23 lung = tested on: NCI-H23 lung
NCI-H460 lung = tested on: NCI-H460 lung
NCI-H522 lung = tested on: NCI-H522 lung
OVCAR-4 ovarian = tested on: OVCAR-4 ovarian
OVCAR-5 ovarian = tested on: OVCAR-5 ovarian
OVCAR-8 ovarian = tested on: OVCAR-8 ovarian
RXF 393 renal = tested on: RXF 393 renal
RXF-631 renal = tested on: RXF-631 renal
SF-268 CNS = tested on: SF-268 CNS
SF-295 CNS = tested on: SF-295 CNS
SF-539 CNS = tested on: SF-539 CNS
SK-MEL-2 melanoma = tested on: SK-MEL-2 melanoma
SK-MEL-28 melanoma = tested on: SK-MEL-28 melanoma
SK-MEL-5 melanoma = tested on: SK-MEL-5 melanoma
SK-OV-3 ovarian = tested on: SK-OV-3 ovarian
SN12C renal = tested on: SN12C renal
SNB-19 CNS = tested on: SNB-19 CNS
SNB-78 CNS = tested on: SNB-78 CNS
SR leukemia = tested on: SR leukemia
SW-620 colon = tested on: SW-620 colon
TK-10 renal = tested on: TK-10 renal
U251 CNS = tested on: U251 CNS
UACC-257 melanoma = tested on: UACC-257 melanoma
UACC-62 melanoma = tested on: UACC-62 melanoma
UO-31 renal = tested on: UO-31 renal
XF 498 CNS = tested on: XF 498 CNS
COLO 205 colon = tested on: COLO 205 colon
HCT-116 colon = tested on: HCT-116 colon
HCT-15 colon = tested on: HCT-15 colon
OVCAR-3 ovarian = tested on: OVCAR-3 ovarian
RPMI-8226 leukemia = tested on: RPMI-8226 leukemia
SNB-75 CNS = tested on: SNB-75 CNS
HCC-2998 colon = tested on: HCC-2998 colon
HOP-18 NSCLC = tested on: HOP-18 NSCLC

Measured: TGI

O=c1[nH]c(=O)n(C2CC(O)C(CO)O2)cc1/C=C/Br (centres undefined)
not listed: COLO 205 colon | HCT-116 colon | HCT-15 colon | OVCAR-3 ovarian | RPMI-8226 leukemia | SNB-75 CNS | HCC-2998 colon | HOP-18 NSCLC
> 100 µM: all other assays above

CCOC(=O)c1ccc(N=Cc2ccc(N(CCC#N)CCC#N)cc2)cc1
not listed: KM12 colon | SR leukemia | U251 CNS | HCC-2998 colon | HOP-18 NSCLC
> 100 µM: all other assays above

N#CC(C(=O)C(N)=O)c1ccccc1Cl (centres undefined)
not listed: HOP-62 NSCLC | HOP-92 NSCLC | NCI-H522 lung | SNB-78 CNS | SR leukemia
> 100 µM: all other assays above
